Source: PMC11562704, “Volatiles extracted from Melaleuca Rugulosa (Link) Craven leaves: comparative profiling, bioactivity screening, and metabolomic analysis” (BMC Complementary Medicine and Therapies, 2024)
≈ marks a conversion by molar mass, not a printed value.

Biological target: T1, Type 1 collagenase enzyme
T1 construct: gene colG; native collagenase preparation isolated from the bacterium; type 1 is normally a mixture of ColG and ColH
Assay: FALGPA hydrolysis, ninhydrin absorbance at […] nm
Assay type: biochemical, Hathewaya histolytica
Conditions: FALGPA substrate; 50 mM tricine pH 7.4; 37 °C; 20 min preincubation

For `O=C(O)CN(CCN(CC(=O)O)CC(=O)O)CC(=O)O` [EDTA], the “IC50 ± SD (inhibition percentage (IP) ± SD) / Anti-collagenase” value was 315.12 ± 2.21 µg/mL (≈ 1080 µM).
